Results reported in article PMC11219945, “Assessing genotoxic effects of chemotherapy agents by a robust in vitro assay based on mass spectrometric quantification of γ-H2AX in HepG2 cells” (Frontiers in Pharmacology, 2024).

Columns and labels:
[1] = tested on: γ-H2AX in HepG2 cells; assay: γ-H2AX time-effect relationship / DNA repair kinetics (k, t50) in HepG2 cells; type: cell-based, Human; parameters: k (speed of γ-H2AX descending): unit not given here; conditions: 100 μM, 0.5–8 h time-dependent kinetics
Procedure: The cells were then treated with different chemotherapy agents in serum-free medium. […] Independent biological experiments with three technical replicates were performed.
(§1) In short, the cell clumps were collected after a certain period of cell culture and histones were obtained by acid extraction. After nuclear isolation, histone extraction, trypsin digestion in the solution, and desalting, the peptide sample from the carboxy terminus of H2AX was analyzed. LC–MS/MS analysis was conducted using a QTRAP 5500 (AB Sciex, Framingham, United States) with an ACQUITY UPLC system (Waters Co., Manchester, United Kingdom). Chromatographic separation was carried out with an ACQUITY UPLC BEH C18 column (100 mm × 2.1 mm, 1.7 μm). The column temperature was maintained at 40°C. A 10 μL sample aliquot was injected for analysis. Mobile phases A and B were 0.1% FA in distilled H2O and acetonitrile, respectively. […] The eluent composition was maintained for 2 min, after which the system returned to 1% B and was re-equilibrated for 2 min. The eluates in the first 1 min were switched to waste to prevent contaminating the ion source. The electrospray ionization source was operated in positive mode using nitrogen as the nebulizing gas. All experiments were performed independently in at least triplicate.
Here, we estimated k and t50 after exposure to nine representative chemotherapy agents based on the 0.5–8 h γ-H2AX time-dependent kinetics (Figure 5) and then obtained these parameters to describe each agent DSB repair capacity using the functions optim and optimize in R language.

[2] = tested on: γ-H2AX in HepG2 cells; assay: γ-H2AX MS assay, dose-effect relationship in HepG2 cells; conditions: for γ-H2AX MEC/MS (minimum effective concentration): 24 h exposure; for maximum γ-H2AX value within the selected concentration range: 24 h
Procedure: Human hepatoblastoma cells (HepG2) were cultivated in DMEM medium under standard conditions (37°C in a 5% CO2 atmosphere). The culturing medium was added with 10% FBS, 100 U/mL penicillin and 100 μg/mL streptomycin.
In accordance to our previous study, cells were exposed to the chemotherapeutic agent by adding a proper volume of chemotherapeutic agent stock solution to the fresh medium without serum. Controls were treated with DMSO (0.1%) in medium. Independent biological experiments with three technical replicates were conducted.
The cells were then treated with different chemotherapy agents in serum-free medium. For a dose-effect relationship experiment, cells were exposed to each agent at either of three concentrations with a 10-fold increase for 24 h. For the time-effect relationship experiment of nine tested chemotherapy agents, cells were exposed to selected chemotherapy agents at 0.5, 1, 2, 4, 8, 12, and 24 h, with the concentration of 100 μM. Independent biological experiments with three technical replicates were performed.
as §1, with “The quantification of γ-H2AX was carried out according to the previous report ([Qu et al., 2021]). In” for “In”
To this end, we firstly examined the cytotoxicity of 34 chemotherapy agents, all of which were already well classified in terms of diverse characteristics. These tested chemotherapy agents were serially diluted for exposure to check the effects on cell viability.

[3] = parameters: method as in earlier work; conditions: ref IARC; cited from earlier work
[4] = combination of in vitro mouse lymphoma, chromosomal aberration, and micronucleus tests; cited from earlier work

Row | Molecule | k (speed of γ-H2AX descending) [1] | t50 (time required for γ-H2AX to drop to half of the maximum value) [1] [h] | γ-H2AX MEC/MS (minimum effective concentration) ([2]; HepG2 cells) | In vitro assays (genotoxicity) [4] | maximum γ-H2AX value within the selected concentration range ([2]; human) | also measured
1 | O=NN(CCCl)C(=O)NCCCl [Carmustine] | 0.169 | 2.298 | ↑(0.01) µM |  |  | γ-H2AX MEC/MS (minimum effective concentration) ([2]; HepG2 cells, listed as carmustine): 0.01 µM
2 | COc1cccc2c1C(=O)c1c(O)c3c(c(O)c1C2=O)C[C@@](O)(C(C)=O)C[C@@H]3O[C@H]1C[C@H](N)[C@H](O)[C@H](C)O1 [Daunorubicin] | 0.139 | 3.344 |  | + | 23 | IARC classification group [3]: 2B
3 | COc1cccc2c1C(=O)c1c(O)c3c(c(O)c1C2=O)C[C@@](O)(C(=O)CO)C[C@@H]3O[C@H]1C[C@H](N)[C@H](O)[C@H](C)O1 [Doxorubicin] | 0.088 | 4.269 |  | + | 21 | IARC classification group [3]: 2A
4 | CC[C@@]1(O)C(=O)OCc2c1cc1n(c2=O)Cc2c-1nc1cc(F)c(C)c3c1c2[C@@H](N)CC3 [Exatecan] | 0.114 | 3.925 |  | + | 19.2 | 
5 | O=C1c2c(O)ccc(O)c2C(=O)c2c(NCCNCCO)ccc(NCCNCCO)c21 [Mitoxantrone] | 0.111 | 7.999 |  | + |  | 
6 | Cc1ncc(CNC(=O)N(CCCl)N=O)c(N)n1 [Nimustine] | 0.160 | 2.465 | ↑(0.01) µM |  |  | γ-H2AX MEC/MS (minimum effective concentration) ([2]; HepG2 cells, listed as nimustine): 0.01 µM
7 | COc1cccc2c1C(=O)c1c(O)c3c(c(O)c1C2=O)C[C@@](O)(C(=O)CO)C[C@@H]3O[C@H]1C[C@H](N)[C@H](O[C@@H]2CCCCO2)[C@H](C)O1 [Pirarubicin] |  |  | ↑(0.01) µM | + |  | maximum γ-H2AX value within the selected concentration range ([2]; HepG2 cells): 22; γ-H2AX MEC/MS (minimum effective concentration) ([2]; HepG2 cells, listed as pirarubicin): 0.01 µM
8 | CC/C(=C(\c1ccccc1)c1ccc(OCCN(C)C)cc1)c1ccccc1 [Tamoxifen] |  |  |  | − | 3.1 | 
9 | O=c1[nH]c(=O)n(C2CCCO2)cc1F (stereo not drawn) [Tegafur] | 3.015 | 1.442 |  | + | 7.2 | value of γ-H2AX ([2]; human, 100 μM): 7.2
10 | COc1cc([C@@H]2c3cc4c(cc3[C@@H](O[C@@H]3O[C@@H]5CO[C@@H](c6cccs6)O[C@H]5[C@H](O)[C@H]3O)[C@H]3COC(=O)[C@H]23)OCO4)cc(OC)c1O [Teniposide] |  |  |  | + | 13.2 | 
11 | Nc1nc2nc[nH]c2c(=S)[nH]1 [Thioguanine] |  |  |  | + | 6.6 | 
12 | CC[C@@]1(O)C(=O)OCc2c1cc1n(c2=O)Cc2cc3c(CN(C)C)c(O)ccc3nc2-1 [Topotecan] | 0.132 | 3.545 |  | + | 18.4 | 
13 | Deoxyfluridine | 4.157 | 1.201 | ↑(10) µM | + |  | value of γ-H2AX ([2]; HepG2 cells, 100 μM of exposure concentration): 8.4; maximum γ-H2AX value within the selected concentration range ([2]; HepG2 cells): 8.4; γ-H2AX MEC/MS (minimum effective concentration) ([2]; HepG2 cells, listed as deoxyfluridine): 10 µM
